Tests used:
[1] = tested on: Human immunodeficiency virus 1; assay: Antiviral activity against HIV1 JR-FL in human HeLa cells expressing CD4, CCR5 assessed as inhibition of integration of viral DNA into cell genome after 3 days by luciferase reporter gene assay; assay type: functional, organism-based; conditions: Human immunodeficiency virus 1, JR-FL, 72 h
[2] = Cytotoxicity against human HeLa cells expressing CD4, CCR5 after 3 days; assay type: cell-based; conditions: HeLa cells expressing CD4 and CCR5
Rattus norvegicus [3] = assay: (§1) AUC in rat at 5 mg/kg, po; assay type: ADME, organism-based, Plasma; parameters: dose 5 mg/kg, route oral; conditions: in vivo
Rattus norvegicus [4] = assay: Oral bioavailability in rat at 5 mg/kg; assay type: ADME, organism-based; conditions: in vivo
[5] = as §1; assay type: ADME, organism-based, Plasma; parameters: dose 5 mg/kg, route oral; conditions: plasma

Row | Structure (SMILES) | EC50 [1] | CC50 at 72 h [2] | AUC (Rattus norvegicus [3]) | F (Rattus norvegicus [4]) | AUC [5]
1 | O=C(C(=O)N1CCN(C(=O)c2ccccc2)CC1)c1c[nH]c2c(-c3ncco3)ccnc12 | 0.39 nM | > 300000 nM |  |  | 
2 | Cc1cnn(-c2ccnc3c(C(=O)C(=O)N4CCN(C(=O)c5ccccc5)[C@H](C)C4)c[nH]c23)c1 | 1.59 nM | > 150000 nM |  |  | 
3 | C[C@@H]1CN(C(=O)C(=O)c2c[nH]c3c(-n4nc5ccccc5n4)ccnc23)CCN1C(=O)c1ccccc1 | 0.31 nM | 74000 nM |  |  | 
4 | C[C@@H]1CN(C(=O)C(=O)c2c[nH]c3c(-n4nnc5ccccc54)ccnc23)CCN1C(=O)c1ccccc1 | 5.34 nM | 71000 nM |  |  | 
5 | Cc1ncn(-c2ccnc3c(C(=O)C(=O)N4CCN(C(=O)c5ccccc5)[C@H](C)C4)c[nH]c23)n1 | 0.59 nM | > 300000 nM |  |  | 
6 | Cc1ncnn1-c1ccnc2c(C(=O)C(=O)N3CCN(C(=O)c4ccccc4)[C@H](C)C3)c[nH]c12 | 10.8 nM | > 300000 nM |  |  | 
7 | O=C(C(=O)N1CCN(C(=O)c2ccccc2)CC1)c1c[nH]c2c(-n3nc4ccccc4n3)ccnc12 | 0.21 nM | 124000 nM |  |  | 
8 | O=C(C(=O)N1CCN(C(=O)c2ccccc2)CC1)c1c[nH]c2c(-n3nnc4ccccc43)ccnc12 | 23.6 nM | 246000 nM |  |  | 
9 | O=C(C(=O)N1CCN(C(=O)c2ccccc2)CC1)c1c[nH]c2c(-n3nnc4cccnc43)ccnc12 | 10.6 nM | > 300000 nM |  |  | 
10 | C[C@@H]1CN(C(=O)C(=O)c2c[nH]c3c(Cl)ccnc23)CCN1C(=O)c1ccccc1 | 11.6 nM | 300000 nM |  |  | 
11 | C[C@@H]1CN(C(=O)C(=O)c2c[nH]c3c(-c4cccs4)ccnc23)CCN1C(=O)c1ccccc1 | 0.24 nM | 168000 nM |  |  | 
12 | Cc1csc(-c2ccnc3c(C(=O)C(=O)N4CCN(C(=O)c5ccccc5)[C@H](C)C4)c[nH]c23)c1 | 0.21 nM | 123000 nM |  |  | 
13 | C[C@@H]1CN(C(=O)C(=O)c2c[nH]c3c(-c4ncco4)ccnc23)CCN1C(=O)c1ccccc1 | 0.34 nM | 135000 nM | 5.6 µM·h | 60% | 
14 | C[C@@H]1CN(C(=O)C(=O)c2c[nH]c3c(-c4nccs4)ccnc23)CCN1C(=O)c1ccccc1 | 0.31 nM | 35000 nM | 1.3 µM·h | 41% | 
15 | Cc1cnc(-c2ccnc3c(C(=O)C(=O)N4CCN(C(=O)c5ccccc5)[C@H](C)C4)c[nH]c23)s1 | 0.71 nM | 28000 nM |  |  | 
16 | Cc1csc(-c2ccnc3c(C(=O)C(=O)N4CCN(C(=O)c5ccccc5)[C@H](C)C4)c[nH]c23)n1 | 0.19 nM | 30000 nM |  |  | 
17 | C[C@@H]1CN(C(=O)C(=O)c2c[nH]c3c(-n4nccn4)ccnc23)CCN1C(=O)c1ccccc1 | 0.44 nM | 300000 nM | 3.3 µM·h | 78% | 
18 | Cc1ccn(-c2ccnc3c(C(=O)C(=O)N4CCN(C(=O)c5ccccc5)[C@H](C)C4)c[nH]c23)n1 | 0.46 nM | 300000 nM |  |  | 
19 | O=C(C(=O)N1CCN(C(=O)c2ccccc2)CC1)c1c[nH]c2c(-c3ccccn3)ccnc12 | 0.93 nM | 231000 nM |  |  | 
20 | O=C(C(=O)N1CCN(C(=O)c2ccccc2)CC1)c1c[nH]c2c(-c3cnccn3)ccnc12 | 1.71 nM | > 300000 nM |  |  | 
21 | COc1cccc(-c2ccnc3c(C(=O)C(=O)N4CCN(C(=O)c5ccccc5)CC4)c[nH]c23)n1 | 7.4 nM | 174000 nM |  |  | 

Row | Structure (SMILES) | EC50 [1] | CC50 at 72 h [2] | AUC (Rattus norvegicus [3]) | F (Rattus norvegicus [4]) | AUC [5]
22 | O=C(C(=O)N1CCN(C(=O)c2ccccc2)CC1)c1c[nH]c2c(-n3nccn3)ccnc12 | 0.32 nM | > 300000 nM | 9.6 µM·h | 65% | 
23 | O=C(C(=O)N1CCN(C(=O)c2ccccc2)CC1)c1c[nH]c2c(-n3cncn3)ccnc12 | 0.64 nM | > 300000 nM |  |  | 
24 | O=C(C(=O)N1CCN(C(=O)c2ccccc2)CC1)c1c[nH]c2c(-n3ccnn3)ccnc12 | 0.88 nM | > 300000 nM |  |  | 
25 | O=C(C(=O)N1CCN(C(=O)c2ccccc2)CC1)c1c[nH]c2c(-n3cccn3)ccnc12 | 0.89 nM | > 300000 nM |  |  | 
26 | O=C(C(=O)N1CCN(C(=O)c2ccccc2)CC1)c1c[nH]c2c(Cl)ccnc12 | 18.4 nM | > 300000 nM |  |  | 
27 | COc1ccnc2c(C(=O)C(=O)N3CCN(C(=O)c4ccccc4)CC3)c[nH]c12 | 12.3 nM | > 300000 nM |  |  | 
28 | Cc1csc(-c2ccnc3c(C(=O)C(=O)N4CCN(C(=O)c5ccccc5)CC4)c[nH]c23)c1 | 0.02 nM | 85000 nM |  |  | 
29 | CC(=O)c1ccc(-c2ccnc3c(C(=O)C(=O)N4CCN(C(=O)c5ccccc5)CC4)c[nH]c23)s1 | 0.29 nM | 268000 nM |  |  | 
30 | O=C(C(=O)N1CCN(C(=O)c2ccccc2)CC1)c1c[nH]c2c(-c3nccs3)ccnc12 | 0.21 nM | 150000 nM |  |  | 
31 | O=C(C(=O)N1CCN(C(=O)c2ccccc2)CC1)c1c[nH]c2c(-c3cncs3)ccnc12 | 0.09 nM | > 300000 nM |  |  | 
32 | Cc1csc(-c2ccnc3c(C(=O)C(=O)N4CCN(C(=O)c5ccccc5)CC4)c[nH]c23)n1 | 0.2 nM | 23000 nM |  |  | 
33 | Cc1cnc(-c2ccnc3c(C(=O)C(=O)N4CCN(C(=O)c5ccccc5)CC4)c[nH]c23)s1 | 0.52 nM | 251000 nM |  |  | 
34 | CNC(=O)c1ccnc2c(C(=O)C(=O)N3CCN(C(=O)c4ccccc4)C[C@H]3C)c[nH]c12 | 2.48 nM | > 300000 nM |  |  | 
35 | COc1ccnc2c(C(=O)C(=O)N3CCN(C(=O)c4ccccc4)C[C@H]3C)c[nH]c12 | 0.63 nM | > 300000 nM |  |  | 
36 | COc1ccnc2c(C(=O)C(=O)N3CCN(C(=O)c4ccccc4)C[C@H]3C)cn(C)c12 | 7.37 nM | > 300000 nM |  |  | 
37 | COc1ccc(-c2ccnc3c(C(=O)C(=O)N4CCN(C(=O)c5ccccc5)C[C@H]4C)c[nH]c23)cc1 | 0.32 nM | > 300000 nM |  |  | 
38 | C[C@@H]1CN(C(=O)c2ccccc2)CCN1C(=O)C(=O)c1c[nH]c2c(-c3cncnc3)ccnc12 | 0.68 nM | 35300 nM |  |  | 
39 | C[C@@H]1CN(C(=O)c2ccccc2)CCN1C(=O)C(=O)c1c[nH]c2c(-c3cnccn3)ccnc12 | 0.27 nM | 15300 nM |  |  | 
40 | C[C@@H]1CN(C(=O)c2ccccc2)CCN1C(=O)C(=O)c1c[nH]c2c(C(=O)Nc3nccs3)ccnc12 | 0.43 nM | > 300000 nM |  |  | 
41 | Cc1csc(NC(=O)c2ccnc3c(C(=O)C(=O)N4CCN(C(=O)c5ccccc5)C[C@H]4C)c[nH]c23)n1 | 3.4 nM | > 300000 nM |  |  | 
42 | CON(C)C(=O)c1ccnc2c(C(=O)C(=O)N3CCN(C(=O)c4ccccc4)C[C@H]3C)c[nH]c12 | 61.1 nM | > 300000 nM |  |  | 

Row | Structure (SMILES) | EC50 [1] | CC50 at 72 h [2] | AUC (Rattus norvegicus [3]) | F (Rattus norvegicus [4]) | AUC [5]
43 | C[C@@H]1CN(C(=O)c2ccccc2)CCN1C(=O)C(=O)c1c[nH]c2c(-c3cccs3)ccnc12 | 0.02 nM | > 300000 nM |  |  | 
44 | C[C@@H]1CN(C(=O)c2ccccc2)CCN1C(=O)C(=O)c1c[nH]c2c(-c3ccsc3)ccnc12 | 0.18 nM | 94500 nM |  |  | 
45 | C[C@@H]1CN(C(=O)c2ccccc2)CCN1C(=O)C(=O)c1c[nH]c2c(-c3cc4ccccc4s3)ccnc12 | 0.1 nM | 170000 nM |  |  | 
46 | Cc1csc(-c2ccnc3c(C(=O)C(=O)N4CCN(C(=O)c5ccccc5)C[C@H]4C)c[nH]c23)c1 | 0.04 nM | 48900 nM |  |  | 
47 | C[C@@H]1CN(C(=O)c2ccccc2)CCN1C(=O)C(=O)c1c[nH]c2c(-c3nccs3)ccnc12 | 0.1 nM | > 300000 nM |  |  | 
48 | C[C@@H]1CN(C(=O)c2ccccc2)CCN1C(=O)C(=O)c1c[nH]c2c(-c3ncco3)ccnc12 | 0.18 nM | > 300000 nM |  |  | 
49 | Cc1noc(C)c1-c1ccnc2c(C(=O)C(=O)N3CCN(C(=O)c4ccccc4)C[C@H]3C)c[nH]c12 | 1.05 nM | > 300000 nM |  |  | 
50 | Cc1ccnc2c(C(=O)C(=O)N3CCN(C(=O)c4ccccc4)CC3)c[nH]c12 | 46.3 nM | > 300000 nM |  |  | 
51 | COc1cncc2[nH]cc(C(=O)C(=O)N3CCN(C(=O)c4ccccc4)C[C@H]3C)c12 | 1.3 nM | 6000 nM |  |  | 
52 | C[C@@H]1CN(C(=O)c2ccccc2)CCN1C(=O)C(=O)c1c[nH]c2c(Cl)ccnc12 | 1.22 nM | > 300000 nM |  |  | 
53 | Cc1ccnc2c(C(=O)C(=O)N3CCN(C(=O)c4ccccc4)C[C@H]3C)c[nH]c12 | 3.06 nM | > 300000 nM |  |  | 
54 | C[C@@H]1CN(C(=O)c2ccccc2)CCN1C(=O)C(=O)c1c[nH]c2c(C(=O)O)ccnc12 | 3.38 nM | > 300000 nM |  |  | 
55 | COc1ccnc2[nH]cc(C(=O)C(=O)N3CCN(C(=O)c4ccccc4)C[C@H]3C)c12 | 1 nM | > 300000 nM |  |  | 1.3 µM·h
56 | C[C@@H]1CN(C(=O)c2ccccc2)CCN1C(=O)C(=O)c1c[nH]c2ncccc12 | 1.7 nM | 280000 nM |  |  | 
57 | C[C@@H]1CN(C(=O)c2ccccc2)CCN1C(=O)C(=O)c1c[nH]c2ccccc12 | 4.9 nM | 195000 nM |  |  | 
58 | COc1cccc2[nH]cc(C(=O)C(=O)N3CCN(C(=O)c4ccccc4)C[C@H]3C)c12 | 0.8 nM | 250000 nM |  |  | 
59 | C[C@@H]1CN(C(=O)c2ccccc2)CCN1C(=O)C(=O)c1c[nH]c2cnccc12 | 22 nM | > 300000 nM |  |  | 
60 | C[C@@H]1CN(C(=O)c2ccccc2)CCN1C(=O)C(=O)c1c[nH]c2cccnc12 | 1.6 nM | > 300000 nM |  |  | 
61 | C[C@@H]1CN(C(=O)c2ccccc2)CCN1C(=O)C(=O)c1c[nH]c2ccncc12 | 580 nM | > 300000 nM |  |  | 
